Reference: ChEMBL document CHEMBL1201862, “PubChem BioAssay data set” (2004)
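Protocol summary: plate cells (96-well), add compound at 5 concentrations, incubate 48 h, interpolate endpoints linearly. GI50: concentration for 50% inhibition of growth.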 Active and inactive are the calls of the source. No stated cut-off is given here; in the data, active = GI50 up to about 1.1 µM and inactive = higher.

Assays:
Assay in all cases: NCI anticancer screen, dose series, 48 h
MOLT-4 = system: MOLT-4
RXF 393 = system: RXF 393
NCI/ADR-RES = system: NCI/ADR-RES
SK-MEL-5 = system: SK-MEL-5
HCT-15 = system: HCT-15
HCT-116 = system: HCT-116
BT-549 = system: BT-549
SF-295 = system: SF-295
MDA-MB-435 = system: MDA-MB-435
786-0 = system: 786-0
KM12 = system: KM12
SK-MEL-2 = system: SK-MEL-2
HCC 2998 = system: HCC 2998
OVCAR-8 = system: OVCAR-8
DU-145 = system: DU-145
HT-29 = system: HT-29
LOX IMVI = system: LOX IMVI
SF-268 = system: SF-268
SK-OV-3 = system: SK-OV-3

Row | SMILES | GI50 (MOLT-4) | GI50 (RXF 393) | GI50 (NCI/ADR-RES) | GI50 (SK-MEL-5) | GI50 (HCT-15) | GI50 (HCT-116) | GI50 (BT-549) | GI50 (SF-295) | GI50 (MDA-MB-435) | GI50 (786-0) | GI50 (KM12) | GI50 (SK-MEL-2) | GI50 (HCC 2998) | GI50 (OVCAR-8) | GI50 (DU-145) | GI50 (HT-29) | GI50 (LOX IMVI) | GI50 (SF-268) | GI50 (SK-OV-3)
1 | COc1cc(C(=O)n2c3ccc(Br)cc3c3nc4ccccc4nc32)cc(OC)c1OC | 50.8 µM (inactive) | 19.7 µM (inactive) | > 100 µM (inactive) | > 100 µM (inactive) | > 100 µM | > 100 µM (inactive) | 37.3 µM (inactive) | 64 µM (inactive) | > 100 µM (inactive) | 44.8 µM (inactive) | > 100 µM (inactive) | 62.8 µM (inactive) | > 100 µM (inactive) | > 100 µM (inactive) | > 100 µM (inactive) | > 100 µM (inactive) | > 100 µM (inactive) | 60.5 µM (inactive) | –
2 | CC(=O)Nc1c(C)cc2c(nc3n2CCC3O)c1[N+](=O)[O-] (stereo not given) | > 100 µM (inactive) | – | > 100 µM (inactive) | > 100 µM (inactive) | > 100 µM | > 100 µM (inactive) | > 100 µM (inactive) | > 100 µM (inactive) | > 100 µM (inactive) | > 100 µM (inactive) | > 100 µM (inactive) | > 100 µM (inactive) | > 100 µM (inactive) | > 100 µM (inactive) | > 100 µM (inactive) | > 100 µM (inactive) | > 100 µM (inactive) | > 100 µM (inactive) | > 100 µM (inactive)
3 | COc1cc([C@@H]2C3C(=O)c4ccccc4C3[C@@H](c3cc(OC)c(OC)c(OC)c3)C23Cc2ccccc2C3=O)cc(OC)c1OC (stereo not given in full) | > 100 µM (inactive) | > 100 µM (inactive) | > 100 µM (inactive) | > 100 µM (inactive) | > 100 µM | > 100 µM (inactive) | > 100 µM (inactive) | > 100 µM (inactive) | > 100 µM (inactive) | > 100 µM (inactive) | > 100 µM (inactive) | – | > 100 µM (inactive) | > 100 µM (inactive) | > 100 µM (inactive) | > 100 µM (inactive) | > 100 µM (inactive) | > 100 µM (inactive) | > 100 µM (inactive)
4 | O=P(O)(CN1CCN(CP(=O)(O)c2ccccc2)CCN(CP(=O)(O)c2ccccc2)CC1)c1ccccc1 | 26.4 µM (inactive) | 80 µM (inactive) | > 100 µM (inactive) | 69.3 µM (inactive) | – | 36.8 µM (inactive) | > 100 µM (inactive) | > 100 µM (inactive) | 93.1 µM (inactive) | 78 µM (inactive) | 47.9 µM (inactive) | – | 78.2 µM (inactive) | > 100 µM (inactive) | > 100 µM (inactive) | 26.1 µM (inactive) | 67.3 µM (inactive) | > 100 µM (inactive) | > 100 µM (inactive)
5 | COP1(=S)OCC2CCC[C@@H]2O1 (stereo not given in full) | > 100 µM (inactive) | > 100 µM (inactive) | > 100 µM (inactive) | > 100 µM (inactive) | > 100 µM | > 100 µM (inactive) | > 100 µM (inactive) | > 100 µM (inactive) | > 100 µM (inactive) | > 100 µM (inactive) | > 100 µM (inactive) | > 100 µM (inactive) | > 100 µM (inactive) | > 100 µM (inactive) | > 100 µM (inactive) | > 100 µM (inactive) | – | > 100 µM (inactive) | –
6 | Nc1ccc(COC(O)CN2CCCCC2)cc1[N+](=O)[O-] (stereo not given) | > 100 µM (inactive) | > 100 µM (inactive) | > 100 µM (inactive) | > 100 µM (inactive) | > 100 µM | > 100 µM (inactive) | > 100 µM (inactive) | > 100 µM (inactive) | > 100 µM (inactive) | > 100 µM (inactive) | > 100 µM (inactive) | > 100 µM (inactive) | > 100 µM (inactive) | > 100 µM (inactive) | > 100 µM (inactive) | > 100 µM (inactive) | – | > 100 µM (inactive) | –
